The values below come from patent US20080020413A1, “CRYSTALLINE VISFATIN AND METHODS THEREFOR” (Columbia University, priority 2006, published 2008).

One data set has as its system tumor cells. Conditions: cited from earlier work.
The next data set deals with NAPRTases. Conditions: cited from earlier work.
Another data set relates to renal cell carcinoma. The conditions noted are these: mouse renal cell carcinoma model; cited from earlier work.
Another data set has as its target T1, NMPRTase (Homo sapiens, UniProt P43490).
T1 construct: Full-length human and murine NMPRTase (residues 1-491) was sub-cloned into the pET26b vector; made in house; host or cells: E. coli (pET26b vector)
The experiment in a line: NMPRTase coupled-enzyme spectrometric assay. The class given is biochemical. Conditions: FIG. 5; Vmax=kcat([E]-[I]).

For the next data set, the system named is normal cells. Conditions: cited from earlier work.

Each structure is given as a SMILES string.

T1 sequence (P43490 whole entry, the tested form may be a part): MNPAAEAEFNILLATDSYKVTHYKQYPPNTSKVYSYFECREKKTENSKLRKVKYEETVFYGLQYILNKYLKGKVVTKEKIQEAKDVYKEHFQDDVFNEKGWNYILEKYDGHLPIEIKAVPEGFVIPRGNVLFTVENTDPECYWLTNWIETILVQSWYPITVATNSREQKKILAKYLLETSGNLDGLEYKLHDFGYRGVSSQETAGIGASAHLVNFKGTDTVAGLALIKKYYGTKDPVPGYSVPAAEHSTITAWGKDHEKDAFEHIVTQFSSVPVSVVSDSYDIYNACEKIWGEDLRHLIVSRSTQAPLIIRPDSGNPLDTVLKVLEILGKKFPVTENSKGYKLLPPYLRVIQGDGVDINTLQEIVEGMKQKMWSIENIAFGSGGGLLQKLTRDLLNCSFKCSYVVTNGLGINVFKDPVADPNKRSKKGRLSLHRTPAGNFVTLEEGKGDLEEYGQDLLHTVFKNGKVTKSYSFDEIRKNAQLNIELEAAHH
Description for NMPRTase: The catalytic activity of NMPRTase was determined using a coupled-enzyme spectrometric assay, following a published protocol (Revollo et al., 2004). Briefly, the NMN product of NMPRTase is converted to NAD^+ with the enzyme NMN/NAMN adenylyltransferase (NMNAT), and NAD^+ is then reduced to NADH by alcohol dehydrogenase (Sigma) using ethanol as the substrate. By monitoring the appearance of NADH at 340 nm, the activity of NMPRTase can be determined. […] The reaction buffer contains 50 mM Tris (pH 7.5), 0.4 mM PRPP, various concentrations of NM (or NA), 2.5 mM ATP, 12 mM MgCl2, 1.5% ethanol, 10 mM semicarbazide (to remove the acetaldehyde product of ethanol oxidation), 0.02% BSA, 10 mg/ml NMNAT, 30 mg/ml ADH, and 0.5 mM NMPRTase. The reactions are carried out at room temperature.

As to `O=C(/C=C/c1cccnc1)NCCCCC1CCN(C(=O)c2ccccc2)CC1` [FK866, (E)-N-[4-(1-benzoylpiperidin-4-yl)butyl]-3-(pyridin-3-yl)acrylamide], in the data set with tumor cells, the apoptosis result is on record as “induces apoptosis” and the “intracellular NAD+ levels” value is recorded as “depletion of intracellular NAD^+ levels”. Also, the “inhibition of NAPRTases” value in the data set on NAPRTases was “does not inhibit”. For the same compound, the anti-angiogenic effects result in the data set on renal cell carcinoma is reported as “potent anti-angiogenic effects”. Further, on NMPRTase, the “relationship between FK866 concentration and Vmax” value is recorded as “linear relationship”. In the data set with normal cells, the “toxicity to normal cells” value is “little toxicity”.
